# Assay results: patent US11224666B2, “Gadolinium contrast agents, scavenging methods, and scavenging system” (Boston Scientific Scimed, Inc., priority 2018, dated 2022)
# Test: example reaction demonstrating the sequestration reaction (strained alkyne with azide, in vitro, followed by NMR)
# Details: allowed to react with azide-fluor 488 (representing a capture substrate), NMR tube
structure (smiles),measurement,value
"OC[C@H]1[C@H]2CCC#CCC[C@@H]12 [(1R,8S,9s)-Bicyclonon-4-yn-9-ylmethanol]",course of the sequestration (click) reaction,complete before a nuclear magnetic resonance (NMR) tube containing the reaction constituents could be inserted into the probe
